The text below walks through data of article PMC11478076, “Synthetic Routes to 2-aryl-1H-pyrrolo[2,3-b]pyridin-4-amines: Cross-Coupling and Challenges in SEM-Deprotection” (Molecules, 2024).

Values joined by “and” are separate entries in the source; they are usually repeats but may differ in a detail not shown here. Equal entries are not always repeated. Where two headings read alike, the source gives them in different places.

Data set [1] concerns the target T1, CSF1R (Homo sapiens, UniProt P07333). Further details: method as in Aarhus et al. [19]. The conditions noted are these: LANCE Ultra assay; ATP level 25 μM; previously reported data ref Aarhus et al. [19]; cited from earlier work. A general note: Time-resolved FRET reads energy transfer from a long-lived donor to a nearby acceptor.
In data set [2] the target is T1, CSF1R. Further details: method as in PMID 38141285. The conditions noted are these: cited from earlier work.
Data set [3] addresses T1, CSF1R. Description: CSF1R enzymatic inhibitory assay, LANCE Ultra TR-FRET (Perkin Elmer). It is filed as biochemical. As to the method: (§1) CSF1R enzymatic inhibitory assay
(§2) The compounds were supplied in a 10 mM DMSO solution, and enzymatic CSF1R inhibition potency was determined by Invitrogen (ThermoFisher) using their Z’-LYTE® assay technology.[11] The assay is based on fluorescence resonance energy transfer (FRET). In the primary reaction, the kinase transfers the gamma-phosphate of ATP to a single tyrosine residue in a synthetic FRET-peptide. In the secondary reaction, a site-specific protease recognizes and cleaves non-phosphorylated FRET-peptides. Thus, phosphorylation of FRET-peptides suppresses cleavage by the development reagent. Cleavage disrupts FRET between the donor (i.e. coumarin) and acceptor (i.e., fluorescein) fluorophores on the FRET-peptide, whereas uncleaved, phosphorylated FRET-peptides maintain FRET. […]
(§3) The TR-FRET-based LANCE Ultra assay (Perkin Elmer) was used to determine IC50 values for various CSF1R inhibitors. Kinase activity and inhibition in this assay was measured as […]
recommended by the manufacturer. […] Subsequently, phosphorylation or inhibition was detected by addition of specific europium (Eu)-labelled anti-phospho-antibodies (2 nM), which upon binding to the phospho-peptide give rise to a FRET signal. The FRET signal was recorded in a time-resolved manner in a Perkin Elmer EnVision reader. […] All assay data was analysed with the Quattro Workflow software package from Quattro Research.

Data set [4] deals with T1, CSF1R. Description: CSF1R enzymatic inhibitory assay, Z'-LYTE (Invitrogen/ThermoFisher). It is filed as biochemical. As to conditions: ATP level equal to KM 10 μM, two titration curves (20 data points). The procedure: Figure 2 CSF1R inhibition (IC50 curves) for the 7-azaindole 3c (red squares), pyrrolopyrimidine 1 (blue circles) and thienopyrimidine 2 (green triangles). The solid lines are regression curves generated from 20 data points each. The assay was performed at ThermoFisher (Invitrogen, San Diego, CA, USA) using the Z-lyte technology; ATP level was equal to KM.
as §1, §2, §3

T1 sequence (P07333 20-972): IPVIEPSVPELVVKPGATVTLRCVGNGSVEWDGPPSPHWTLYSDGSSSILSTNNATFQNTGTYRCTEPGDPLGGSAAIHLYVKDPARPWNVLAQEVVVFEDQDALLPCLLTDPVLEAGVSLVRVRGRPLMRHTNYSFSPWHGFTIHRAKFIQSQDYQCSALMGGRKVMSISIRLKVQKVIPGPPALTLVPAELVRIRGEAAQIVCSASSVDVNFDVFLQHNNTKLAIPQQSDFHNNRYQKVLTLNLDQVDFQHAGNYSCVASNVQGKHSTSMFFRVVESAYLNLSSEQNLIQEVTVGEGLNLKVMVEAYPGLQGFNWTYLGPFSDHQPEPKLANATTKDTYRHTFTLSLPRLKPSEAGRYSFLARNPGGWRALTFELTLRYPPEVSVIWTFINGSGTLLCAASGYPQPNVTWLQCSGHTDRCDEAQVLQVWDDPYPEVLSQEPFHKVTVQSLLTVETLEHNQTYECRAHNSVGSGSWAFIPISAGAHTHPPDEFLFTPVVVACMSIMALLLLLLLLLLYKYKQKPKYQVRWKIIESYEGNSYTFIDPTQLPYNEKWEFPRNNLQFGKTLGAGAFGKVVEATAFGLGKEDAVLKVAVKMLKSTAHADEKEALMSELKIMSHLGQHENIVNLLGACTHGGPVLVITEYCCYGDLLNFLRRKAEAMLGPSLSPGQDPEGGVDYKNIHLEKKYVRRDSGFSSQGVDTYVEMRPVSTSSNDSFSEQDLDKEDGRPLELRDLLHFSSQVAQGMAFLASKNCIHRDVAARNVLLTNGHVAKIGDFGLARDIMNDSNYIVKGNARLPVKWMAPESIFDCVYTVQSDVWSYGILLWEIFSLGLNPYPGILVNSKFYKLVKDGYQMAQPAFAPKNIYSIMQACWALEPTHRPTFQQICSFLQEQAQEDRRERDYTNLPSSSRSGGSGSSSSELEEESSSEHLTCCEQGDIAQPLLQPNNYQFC

Usually IC50 stands for the concentration that gives 50% inhibition. As to `CN(Cc1ccccc1)c1ncnc2sc(-c3ccc(CO)cc3)cc12` [compound 2], the IC50 in data set [1] was 450 nM. Besides, in data set [2], the “CSF1R inhibitory activity in enzymatic studies (in words)” value was “far less active”.
As a reminder, the melting point is the temperature of the solid-liquid transition. Take `CN(Cc1ccccc1)c1ccnc2[nH]c(-c3ccccc3)cc12` [3a, N-Benzyl-N-methyl-2-phenyl-1H-pyrrolo-[2,3-b]pyridin-4-amine]: the melting point fell in the range of 191 to 193 °C.
The compound `CN(Cc1ccccc1)c1ccnc2[nH]c(-c3ccc(CO)cc3)cc12` [3c, (4-(4-(Benzyl(methyl)amino)-1H-pyrrolo[2,3-b]pyridin-2-yl)phenyl)methanol] returned a melting point of 200 to 201 °C. In addition, in data set [3] (CSF1R assay with higher ATP concentration (25 μM)), the “fold lower CSF1R activity compared to the corresponding pyrrolopyrimidine (reference inhibitor 1)” value is 20 fold. The same compound returned an IC50 in data set [3] (LANCE Ultra assay, ATP level 25 μM) of 105 nM. Further, the IC50 in data set [4] was 3 nM and 3.1 nM.
Consider `COc1ccc(-c2[nH]c3nccc4c3c2Cc2ccccc2CN4C)cc1` [16b, 1-(4-Methoxyphenyl)-6-methyl-2,6,7,12-tetrahydro-2,3,6-triazabenzo[6,7]cycloocta[1,2,3-cd]indene], for which the melting point is 287 to 289 °C (dec.).
